According to patent US8017611B2, “Pyridine and pyrazine derivatives -083” (AstraZeneca AB, priority 2007, dated 2011):

Each compound was assayed against T1, recombinant Axl tyrosine kinase (Homo sapiens, UniProt P30530) (assay: In vitro Axl kinase assay (AlphaScreen), Test (a)). Settings: 1 μM; mean calculated from a larger number of replicates than the first value; read-out: % Axl tyrosine kinase inhibition at 1 μM concentration (second value, †).
T1 construct: encompassing amino acids 473 to 894 of Axl; GST (N); made in house; host or cells: SF126 insect cells
T1 sequence (P30530 473-894): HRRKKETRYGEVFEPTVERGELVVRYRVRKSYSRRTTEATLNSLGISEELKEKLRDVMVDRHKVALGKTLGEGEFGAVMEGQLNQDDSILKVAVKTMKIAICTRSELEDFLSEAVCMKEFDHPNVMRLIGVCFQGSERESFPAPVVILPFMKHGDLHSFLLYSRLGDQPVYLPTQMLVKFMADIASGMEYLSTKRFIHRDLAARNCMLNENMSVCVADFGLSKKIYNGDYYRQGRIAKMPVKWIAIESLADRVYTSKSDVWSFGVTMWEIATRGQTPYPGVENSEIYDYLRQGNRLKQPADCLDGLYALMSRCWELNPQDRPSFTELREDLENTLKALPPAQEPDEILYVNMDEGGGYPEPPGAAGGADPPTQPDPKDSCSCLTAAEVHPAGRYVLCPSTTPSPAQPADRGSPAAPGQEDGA
Type: biochemical
`CC(C)(C)OC(=O)N1CCC(n2cc(-c3cnc(N)c(-c4nc5ccccc5s4)c3)cn2)CC1` [Example 13, tert-butyl 4-[4-[6-Amino-5-(1,3-benzothiazol-2-yl)-3-pyridyl]pyrazol-1-yl]piperidine-1-carboxylate] gave an inhibition at 1 µM of 99%.

Same assay, conditions: test compound at 1 μM; first value quoted
With `CN(C)c1cccc(-c2cnc(N)c(-c3nc4ccccc4o3)n2)c1` [Example 20.15] the “% Axl tyrosine kinase inhibition at 1 μM concentration” value (shortened to “% Axl tyrosine kinase inhibition”) was 96.9%. In the case of `CC1CCCCN1CC1CCCN1C(=O)c1ccc(-c2cnc(N)c(-c3nc4cccnc4o3)c2)cc1` (centres unmarked) [Example 45A.18], the “% Axl tyrosine kinase inhibition” value is reported as 99.7%. `CC(=O)N1CCC(n2cc(-c3cnc(N)c(-c4nc5ncccc5o4)c3)cn2)CC1` [Example 57.1] was tested, and the “% Axl tyrosine kinase inhibition” value was 98.5%. In the case of `COCc1ccccc1-c1cnc(N)c(-c2nc3ccccc3o2)c1` [Example 2.36], the “% Axl tyrosine kinase inhibition” value is reported as 98.5%. With `Nc1ncc(-c2cccc(CN3CCOCC3)c2)cc1-c1nc2ccccc2o1` [Example 2.22] the “% Axl tyrosine kinase inhibition” value was 97.9%. `Nc1ncc(-c2ccc(S(=O)(=O)NCCO)cc2)cc1-c1nc2cnccc2o1` [Example 8A.2] was tested, and the “% Axl tyrosine kinase inhibition” value was 99.2%. `CN1CCCC(NC(=O)c2ccc(-c3cnc(N)c(-c4nc5cccnc5o4)c3)cc2)C1` (centres unmarked) [Example 45A.19] was tested, and the “% Axl tyrosine kinase inhibition” value was 98.7%. In the case of `Nc1ncc(-c2ccc(OCCOCCN3CCOCC3)cc2)cc1-c1nc2ncccc2o1` [Example 43B.22], the “% Axl tyrosine kinase inhibition” value is reported as 97.7%. With `CN(C)CCN1CCN(C(=O)c2ccc(-c3cnc(N)c(-c4nc5cccnc5o4)c3)cc2)CC1` [Example 45A.50] the “% Axl tyrosine kinase inhibition” value was 93.7%. In the case of `CS(=O)(=O)Oc1cccc(-c2cnc(N)c(-c3nc4ccccc4o3)n2)c1` [Example 20.18], the “% Axl tyrosine kinase inhibition” value is reported as 98.1%. In the case of `Nc1ncc(-c2cccc(CN3CCCC3)c2)cc1-c1nc2ncccc2o1` [Example 10A.7], the “% Axl tyrosine kinase inhibition” value is reported as 95.9%. With `CN1CCN(c2ccc(-c3cnc(N)c(-c4nc5ncccc5o4)c3)cc2)CC1` [Example 25.7] the “% Axl tyrosine kinase inhibition” value was 99.1%. With `COc1cc(-c2cnc(N)c(-c3nc4ncccc4o3)c2)ccc1OC1CCNCC1` [Example 43C.29] the “% Axl tyrosine kinase inhibition” value was 99.9%. `Nc1ncc(-c2ccc(C(=O)N3CCC(N)C3)cc2)cc1-c1nc2cccnc2o1` (centres unmarked) [Example 45A.79] was tested, and the “% Axl tyrosine kinase inhibition” value was 99.0%. With `Nc1ncc(-c2ccc(N3CCNCC3)cc2)cc1-c1nc2ccccc2o1` [Example 2.14] the “% Axl tyrosine kinase inhibition” value was 99.9%. `Nc1ncc(-c2ccnc3ccccc23)cc1-c1nc2ccccc2o1` [Example 2.25] was tested, and the “% Axl tyrosine kinase inhibition” value was 60.3%. With `Nc1ncc(-c2ccc(OCCC3CCNCC3)cc2)cc1-c1nc2ncccc2o1` [Example 43B.35] the “% Axl tyrosine kinase inhibition” value was 95.9%. For `Nc1ncc(-c2ccc(C(=O)NCCCN3CCCC3)cc2)cc1-c1nc2cccnc2o1` [Example 45A.6], the “% Axl tyrosine kinase inhibition” value was 97.4%. In the case of `Nc1ncc(-c2cnn(C3CCNCC3)c2)cc1-c1nc2c(F)cccc2o1` [Example 38A.2], the “% Axl tyrosine kinase inhibition” value is reported as 100.0%. For `CN1CCCC(n2cc(-c3cnc(N)c(-c4nc5ccccc5o4)c3)cn2)C1` (centres unmarked) [Example 41.2], the “% Axl tyrosine kinase inhibition” value was 99.3%. With `CN1CCN(C(=O)c2ccc(-c3cnc(N)c(-c4nc5ncccc5o4)c3)cc2)CC1` [Example 45B.2] the “% Axl tyrosine kinase inhibition” value was 96.1%. With `CC(C)N1CCC(n2cc(-c3cnc(N)c(-c4nc5ncccc5o4)c3)cn2)CC1` [Example 53.4] the “% Axl tyrosine kinase inhibition” value was 99.2%. In the case of `Nc1ncc(-c2cnn(C3CNC3)c2)cc1-c1nc2ccccc2o1` [Example 29.2], the “% Axl tyrosine kinase inhibition” value is reported as 99.8%. With `Nc1ncc(-c2cccc(S(=O)(=O)NC3CC3)c2)cc1-c1nc2ncccc2o1` [Example 10A.10] the “% Axl tyrosine kinase inhibition” value was 90.0%. `Nc1ncc(-c2ccc(C(=O)N3CCC(O)CC3)cc2)cc1-c1nc2cnccc2o1` [Example 8A.8] was tested, and the “% Axl tyrosine kinase inhibition” value was 97.1%. For `Nc1ncc(-c2ccc(C(=O)N3CCC(CN4CCNCC4)CC3)cc2)cc1-c1nc2cccnc2o1` [Example 45A.98], the “% Axl tyrosine kinase inhibition” value was 97.6%. For `NCCCCOc1ccc(-c2cnc(N)c(-c3nc4ncccc4o3)c2)cc1` [Example 43B.34], the “% Axl tyrosine kinase inhibition” value was 95.7%. For `CN(C)CCNC(=O)c1cccc(-c2cnc(N)c(-c3nc4ncccc4o3)c2)c1` [Example 10A.18], the “% Axl tyrosine kinase inhibition” value was 84.7%. With `COc1cc(-c2cnc(N)c(-c3nc4ncccc4o3)c2)ccc1OCC#CCN1CCS(=O)(=O)CC1` [Example 43C.20] the “% Axl tyrosine kinase inhibition” value was 98.1%. With `CCN1CCC(n2cc(-c3cnc(N)c(-c4nc5ccccc5o4)c3)cn2)CC1` [Example 4.1] the “% Axl tyrosine kinase inhibition” value was 100.0%. With `COc1cc(-c2cnc(N)c(-c3nc4ncccc4o3)c2)ccc1OCCOCCN1CCNCC1` [Example 43C.35] the “% Axl tyrosine kinase inhibition” value was 99.2%. `CN(C)C1CCC(NC(=O)c2ccc(-c3cnc(N)c(-c4nc5cccnc5o4)c3)cc2)CC1` (centres unmarked) [Example 45A.24] was tested, and the “% Axl tyrosine kinase inhibition” value was 95.8%. `Nc1ncc(-c2ccc(C(=O)N3CC(N)C3)cc2)cc1-c1nc2cccnc2o1` [Example 45A.105] was tested, and the “% Axl tyrosine kinase inhibition” value was 98.4%. For `Nc1ncc(-c2ccc(C(=O)N3CCC(O)CC3)cc2)cc1-c1nc2cccnc2o1` [Example 9A.6], the “% Axl tyrosine kinase inhibition” value was 95.6%. In the case of `CC1CCN(CCCNC(=O)c2ccc(-c3cnc(N)c(-c4nc5cccnc5o4)c3)cc2)CC1` [Example 45A.46], the “% Axl tyrosine kinase inhibition” value is reported as 99.1%. With `Nc1ncc(-c2cccc(N3CCCCC3)c2)nc1-c1nc2ccccc2o1` [Example 20.4] the “% Axl tyrosine kinase inhibition” value was 89.2%. For `NC(=O)c1ccc(-c2cnc(N)c(-c3nc4cnccc4o3)c2)cc1` [Example 8A.9], the “% Axl tyrosine kinase inhibition” value was 98.7%. With `CNC(=O)c1cccc2nc(-c3cc(-c4cnn(C5CCN(C)CC5)c4)cnc3N)oc12` [Example 41.36] the “% Axl tyrosine kinase inhibition” value was 100.0%. With `Nc1ncc(-c2ccc(C(=O)N3CCC(N4CCCC4)CC3)cc2)cc1-c1nc2cccnc2o1` [Example 45A.63] the “% Axl tyrosine kinase inhibition” value was 99.1%. `Nc1ncc(-c2ccc(C(=O)N3CCCC(N)CC3)cc2)cc1-c1nc2cccnc2o1` (centres unmarked) [Example 45A.95] was tested, and the “% Axl tyrosine kinase inhibition” value was 99.5%. With `CN1CCC(n2cc(-c3cnc(N)c(-c4nc5ncccc5o4)c3)cn2)CC1` [Example 41.4] the “% Axl tyrosine kinase inhibition” value was 99.8%. `Nc1ncc(-c2cnn(C3CCNCC3)c2)cc1-c1nc2ccc(F)c(F)c2o1` [Example 38.1] was tested, and the “% Axl tyrosine kinase inhibition” value was 99.5%. `Nc1ncc(-c2cccc(N3CCCCC3)c2)cc1-c1nc2ncccc2o1` [Example 10A.17] was tested, and the “% Axl tyrosine kinase inhibition” value was 40.3%. With `Nc1ncc(-c2cccc(-c3ccn[nH]3)c2)cc1-c1nc2cnccc2o1` [Example 8A.28] the “% Axl tyrosine kinase inhibition” value was 97.5%.

Same assay, conditions: test compound at 1 μM; first value quoted; read-out: % Axl tyrosine kinase inhibition at 1 μM concentration
Compound `CN(C)CCNC(=O)c1ccc(-c2cnc(N)c(-c3nc4ncccc4o3)c2)cc1` [Example 10A.15, 4-(6-amino-5-oxazolo[4,5-b]pyridin-2-yl-3-pyridyl)-N-(2-dimethylaminoethyl)benzamide] has an inhibition at 1 µM of 98.4%. With `CC(C)(C)OC(=O)N1CCC(n2cc(-c3cnc(N)c(-c4nc5ccccc5s4)c3)cn2)CC1` [Example 13, tert-butyl 4-[4-[6-Amino-5-(1,3-benzothiazol-2-yl)-3-pyridyl]pyrazol-1-yl]piperidine-1-carboxylate] the inhibition at 1 µM was 95.4%. `Cc1nn(C2CCN(C(=O)OC(C)(C)C)CC2)cc1-c1cnc(N)c(-c2nc3ccccc3o2)c1` [Example 21, Tert-butyl 4-[4-[6-amino-5-(1,3-benzoxazol-2-yl)-3-pyridyl]-3-methyl-pyrazol-1-yl]piperidine-1-carboxylate] was tested, and the inhibition at 1 µM was 9.7%. For `CN1CCC(n2cc(-c3cnc(N)c(-c4nc5ccccc5s4)c3)cn2)CC1` [Example 16, 3-(1,3-Benzothiazol-2-yl)-5-[1-(1-methyl-4-piperidyl)pyrazol-4-yl]pyridin-2-amine], the inhibition at 1 µM was 99.8%. In the case of `CC(C)N1CCC(n2cc(-c3cnc(N)c(-c4nc5ccccc5o4)c3)cn2)CC1` [Example 5, 3-(1,3-Benzoxazol-2-yl)-5-[1-(1-isopropyl-4-piperidyl)pyrazol-4-yl]pyridin-2-amine], the inhibition at 1 µM is reported as 100%. Work on `Nc1ncc(-c2cnn(CCN3CCNCC3)c2)cc1-c1nc2ccccc2o1` [Example 32, 3-(1,3-benzoxazol-2-yl)-5-[1-(2-piperazin-1-ylethyl)pyrazol-4-yl]pyridin-2-amine] yielded an inhibition at 1 µM of 99.9%. Work on `Cc1nn(C2CCNCC2)cc1-c1cnc(N)c(-c2nc3c(F)cccc3o2)c1` [Example 25A, 3-(4-fluoro-1,3-benzoxazol-2-yl)-5-[3-methyl-1-(4-piperidyl)pyrazol-4-yl]pyridin-2-amine] yielded an inhibition at 1 µM of 100%. Compound `CN1CCC(n2cc(-c3cnc(N)c(-c4nc5c(F)cccc5o4)c3)cn2)CC1` [Example 6, 3-(4-Fluoro-1,3-benzoxazol-2-yl)-5-[1-(1-methyl-4-piperidyl)pyrazol-4-yl]pyridin-2-amine] has an inhibition at 1 µM of 99.9%. `C[N+]1([O-])CCC(n2cc(-c3cnc(N)c(-c4nc5ccccc5o4)c3)cn2)CC1` (centres unmarked) [Example 12, 3-(1,3-Benzoxazol-2-yl)-5-[1-(1-methyl-1-oxido-piperidin-1-ium-4-yl)pyrazol-4-yl]pyridin-2-amine] gave an inhibition at 1 µM of 90.6%.

Same assay, conditions: test compound at 30 μM; read-out: % of Axl tyrosine kinase activity inhibited at a concentration of 30 μM
Work on `Nc1ncc(-c2cccc(S(=O)(=O)N3CCOCC3)c2)cc1-c1nc2ccccc2o1` [Example 47, 3-(1,3-Benzoxazol-2-yl)-5-(3-morpholinosulphonylphenyl)pyridin-2-amine] yielded an inhibition at 30 µM of 99.5%. Work on `Cc1nn(C2CCN(C(=O)OC(C)(C)C)CC2)cc1-c1cnc(N)c(-c2nc3ccccc3o2)c1` [Example 21, Tert-butyl 4-[4-[6-amino-5-(1,3-benzoxazol-2-yl)-3-pyridyl]-3-methyl-pyrazol-1-yl]piperidine-1-carboxylate] yielded an inhibition at 30 µM of 76.4%.
